{"source": "paper PMC13280021", "about": "“Collateral hypersensitivity between ZY19489 and piperaquine neutralizes PfCRT-mediated drug efflux and Plasmodium falciparum resistance” (Nature Communications, 2025)", "key": {"[1]": {"tested_on": "T1, Plasmodium falciparum Dd2^Dd2crt", "T1 construct": "Dd2", "assay": "microbe, parasite or virus in culture", "set-up": "species or system P. falciparum in human red blood cells; asexual blood stage growth inhibition, flow cytometry with SYBR Green I and MitoTracker Deep Red", "conditions": "DD2, Erythrocyte, 72 h", "protocol": "Susceptibility to all drugs tested in this study was measured by incubating asynchronous, ABS parasites plated at 0.2% to 0.3% parasitemia (or 0.8% for the poorly growing ZY19489-resistant lines harboring the pfcrt N246H allele) and 1% hematocrit at 37 °C in 96-well plates. The assays were set up across a range of drug concentrations with two-fold dilutions. For the experiments testing for susceptibility of recrudescent parasite lines that emerged in humanized NSG mice to ZY19489, M5717, MMV693183, or ferroquine, parasites were cultured at 2% hematocrit in human O^+ or A^+ RBCs in RPMI-1640 media, supplemented with 25 mM HEPES (Fisher), 50 mg/L hypoxanthine (Sigma Aldrich), 2 mM L-glutamine (Cambridge Isotope Laboratories, Inc.), 0.21% sodium bicarbonate (Sigma Aldrich), 0.5% (w/v) Albumax (Invitrogen), 8% filtered, heat-inactivated, pooled off-the-clot AB^+ human serum (Interstate Blood Bank or New York Blood Center), and 10 μg/mL gentamicin (Fisher). The parental P. falciparum Pf3D7^0087/N9 strain that has been adapted to proliferate in this humanized NSG mouse model was cultured in parallel as the drug-sensitive control strain. All compound susceptibility assays for the recrudescent lines and parental control strain were performed using 8% serum-containing medium. Parasite growth in each well was assessed after 72 h using flow cytometry of cultures stained with SYBR Green I and MitoTracker Deep Red (Supplementary Fig. S12). IC50 and IC90 values were derived from growth inhibition data using nonlinear regression analysis (GraphPad Prism 7) or linear interpolation (assays for recrudescent lines from humanized mice). Unless otherwise stated, assays were performed on four independent occasions with technical duplicates, and statistical comparisons were made using two-tailed Mann–Whitney U tests. Gated RBCs 97.0% Live parasites 3.80% A B Forward scatter (FSC-H) MitoTracker Deep Red Supplementary Fig. 12: Gating strategy for flow cytometry-based quantification of P. falciparum asexual blood stage parasite proliferation in drug susceptibility and growth rate assays. Intra-erythrocytic parasites were seeded at 0.3% - 0.8% parasitemia and 1% hematocrit for 72 hours in the presence of a range of drug concentrations that had been 2-fold serially diluted in duplicates along with drug-free controls. Cells were then labeled with 1× SYBR Green (Invitrogen) and 100 nM MitoTracker Deep Red FM (Invitrogen) as nuclear stain and vital dyes, respectively. Parasite survival was assessed by flow cytometry on an Intellicyt iQue3 (Essen Bioscience). Between 9,000 and 15,000 events were counted per sample. […] (A) Forward (FSC-H) and side scatter (SSC-H) gating of the total red blood cell (RBC) population, representing 97.0% of the total events counted. (B) Gating strategy used to quantify viable intracellular parasites, which are positively stained by both MitoTracker Deep Red and SYBR Green I and appear as events in the upper right gate (live parasites, 3.80% parasitemia). Uninfected erythrocytes appear in the lower left gate as MitoTracker Deep Red and SYBR Green I negative populations."}, "[2]": {"target": "T2, P. falciparum chloroquine resistance transporter (PfCRT), 7G8 isoform (Plasmodium falciparum, UniProt W7FI62)", "T2 construct": "gene CRT; purified PfCRT 7G8 reconstituted in proteoliposomes", "assay": "[…] [3H]CQ uptake in PfCRT proteoliposomes", "format": "biochemical"}, "[3]": {"tested_on": "T3, Plasmodium falciparum TAD_022", "T3 construct": "3D7^0087/N9 (TAD_022)", "assay": "microbe, parasite or virus in culture", "set-up": "species or system P. falciparum 3D7^0087/N9 in human red blood cells; asexual blood stage growth inhibition in 8% human serum medium, flow cytometry", "conditions": "Erythrocyte, 72 h; for IC50: read-out: IC50 ± SEM (nM); for IC90: read-out: IC90 ± SEM (nM)", "protocol": "Susceptibility to all drugs tested in this study was measured by incubating asynchronous, ABS parasites plated at 0.2% to 0.3% parasitemia (or 0.8% for the poorly growing ZY19489-resistant lines harboring the pfcrt N246H allele) and 1% hematocrit at 37 °C in 96-well plates. The assays were set up across a range of drug concentrations with two-fold dilutions. For the experiments testing for susceptibility of recrudescent parasite lines that emerged in humanized NSG mice to ZY19489, M5717, MMV693183, or ferroquine, parasites were cultured at 2% hematocrit in human O^+ or A^+ RBCs in RPMI-1640 media, supplemented with 25 mM HEPES (Fisher), 50 mg/L hypoxanthine (Sigma Aldrich), 2 mM L-glutamine (Cambridge Isotope Laboratories, Inc.), 0.21% sodium bicarbonate (Sigma Aldrich), 0.5% (w/v) Albumax (Invitrogen), 8% filtered, heat-inactivated, pooled off-the-clot AB^+ human serum (Interstate Blood Bank or New York Blood Center), and 10 μg/mL gentamicin (Fisher). The parental P. falciparum Pf3D7^0087/N9 strain that has been adapted to proliferate in this humanized NSG mouse model was cultured in parallel as the drug-sensitive control strain. All compound susceptibility assays for the recrudescent lines and parental control strain were performed using 8% serum-containing medium. Parasite growth in each well was assessed after 72 h using flow cytometry of cultures stained with SYBR Green I and MitoTracker Deep Red (Supplementary Fig. S12). IC50 and IC90 values were derived from growth inhibition data using nonlinear regression analysis (GraphPad Prism 7) or linear interpolation (assays for recrudescent lines from humanized mice). Unless otherwise stated, assays were performed on four independent occasions with technical duplicates, and statistical comparisons were made using two-tailed Mann–Whitney U tests. To assess potential cross-resistance between M5717 and ZY19489, we tested three M5717-resistant lines (TAD_470, TAD_462, and TAD_464), which harbored distinct PfeEF2 mutations (I183M, P754S, and I182T, respectively), for susceptibility to ZY19489."}, "[4]": {"target": "T4, P. falciparum chloroquine resistance transporter (PfCRT), 7G8 + F145I isoform (Plasmodium falciparum, UniProt W7FI62, F145I)", "T4 construct": "gene CRT; purified PfCRT 7G8 + F145I reconstituted in proteoliposomes", "T4 sequence (W7FI62 whole entry F145I, canonical isoform)": "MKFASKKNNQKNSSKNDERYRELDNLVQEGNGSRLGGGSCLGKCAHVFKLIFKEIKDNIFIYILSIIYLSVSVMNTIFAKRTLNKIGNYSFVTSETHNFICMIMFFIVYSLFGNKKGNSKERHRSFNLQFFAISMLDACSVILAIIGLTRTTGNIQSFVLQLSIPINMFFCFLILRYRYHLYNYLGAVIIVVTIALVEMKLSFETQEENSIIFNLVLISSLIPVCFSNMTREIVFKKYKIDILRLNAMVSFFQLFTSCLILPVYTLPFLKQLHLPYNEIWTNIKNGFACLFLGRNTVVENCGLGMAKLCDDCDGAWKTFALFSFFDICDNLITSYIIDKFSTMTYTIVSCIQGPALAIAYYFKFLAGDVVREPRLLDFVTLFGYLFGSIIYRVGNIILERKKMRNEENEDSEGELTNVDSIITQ", "assay": "[…] [3H]PPQ uptake in PfCRT proteoliposomes", "format": "biochemical"}, "[5]": {"target": "T4, P. falciparum chloroquine resistance transporter (PfCRT), 7G8 + F145I isoform", "assay": "inhibition of [3H]PPQ uptake in PfCRT proteoliposomes", "format": "biochemical", "conditions": "read-out: % inhibition of [3H]PPQ transport at 1 μM"}}, "note": "Read-outs that look alike come from different tables or passages of the source.", "data": [{"smiles": "O=C1C(O)=C([C@H]2CC[C@H](c3ccc(Cl)cc3)CC2)C(=O)c2ccccc21", "note": "[ATQ, atovaquone]", "values": [{"measurement": "IC50", "setting": "[1]; read-out: ATQ IC50", "result": "2.5 ± 0.4", "unit": "nM"}, {"measurement": "IC90", "setting": "[1]; read-out: ATQ IC90", "result": "5.3 ± 0.7", "unit": "nM"}]}, {"smiles": "CCN(CC)CCCC(C)Nc1ccnc2cc(Cl)ccc12", "note": "(stereo not drawn) [CQ, chloroquine]", "values": [{"measurement": "100 nM [3H]CQ uptake in PfCRT proteoliposomes", "setting": "[2]", "result": "[^3H]CQ transport by the CQ-resistant 7G8 isoform"}, {"measurement": "IC50", "setting": "[1]; read-out: CQ IC50", "result": "104 ± 5.7", "unit": "nM"}, {"measurement": "IC90", "setting": "[1]; read-out: CQ IC90", "result": "217 ± 11.3", "unit": "nM"}, {"measurement": "IC50", "setting": "[1]; read-out: IC50 (nM)", "result": "94.6 ± 6.6", "unit": "nM"}, {"measurement": "IC90", "setting": "[1]; read-out: IC90 (nM)", "result": "177 ± 24.1", "unit": "nM"}]}, {"smiles": "CCNCc1cc(Nc2ccnc3cc(Cl)ccc23)ccc1O", "note": "[DEAQ, mono-desethylamodiaquine]", "values": [{"measurement": "IC50", "setting": "[1]; read-out: DEAQ IC50", "result": "43.8 ± 5.9", "unit": "nM"}, {"measurement": "IC90", "setting": "[1]; read-out: DEAQ IC90", "result": "78.7 ± 8.8", "unit": "nM"}]}, {"smiles": "C[C@H]1[C@@H](O)O[C@@H]2O[C@@]3(C)CC[C@H]4[C@H](C)CC[C@@H]1[C@@]24OO3", "note": "[DHA, dihydroartemisinin]", "values": [{"measurement": "IC50", "setting": "[1]; read-out: DHA IC50", "result": "2.6 ± 0.2", "unit": "nM"}, {"measurement": "IC90", "setting": "[1]; read-out: DHA IC90", "result": "4.7 ± 0.6", "unit": "nM"}]}, {"smiles": "CCCCN(CCCC)CC(O)c1cc(Cl)cc2c1-c1ccc(Cl)cc1/C2=C/c1ccc(Cl)cc1", "note": "(stereo not drawn) [LMF, lumefantrine]", "values": [{"measurement": "IC50", "setting": "[1]; read-out: LMF IC50", "result": "6 ± 1.2", "unit": "nM"}, {"measurement": "IC90", "setting": "[1]; read-out: LMF IC90", "result": "11.2 ± 1.8", "unit": "nM"}]}, {"smiles": "O=C(NCCN1CCCC1)c1cc(-c2ccc(CN3CCOCC3)cc2)nc2ccc(F)cc12", "note": "[M5717]", "values": [{"measurement": "IC50", "setting": "[3]", "result": "0.4 ± 0.01", "unit": "nM"}, {"measurement": "IC90", "setting": "[3]", "result": "0.8 ± 0.1", "unit": "nM"}]}, {"smiles": "COc1ccc(C2=N[C@@H](c3ccc(Cl)cc3)[C@@H](c3ccc(Cl)cc3)N2C(=O)N2CCNC(=O)C2)c(OC(C)C)c1", "note": "[Nutlin-3]", "values": [{"measurement": "IC50", "setting": "[1]; read-out: IC50 (nM)", "result": "5660 ± 511", "unit": "nM"}, {"measurement": "IC90", "setting": "[1]; read-out: IC90 (nM)", "result": "9130 ± 714", "unit": "nM"}]}, {"smiles": "Clc1ccc2c(N3CCN(CCCN4CCN(c5ccnc6cc(Cl)ccc56)CC4)CC3)ccnc2c1", "note": "[PPQ, piperaquine]", "values": [{"measurement": "100 nM [3H]PPQ uptake in PfCRT proteoliposomes", "setting": "[4]", "result": "interference was also observed against [^3H]PPQ transport by the PPQ-resistant isoform 7G8 + F145I"}, {"measurement": "IC50", "setting": "[1]; read-out: PPQ IC50", "result": "12 ± 1", "unit": "nM"}, {"measurement": "IC90", "setting": "[1]; read-out: PPQ IC90", "result": "22.3 ± 4.6", "unit": "nM"}]}, {"smiles": "O=C1CCC(N2C(=O)c3ccccc3C2=O)C(=O)N1", "note": "(stereo not drawn) [Thalidomide]", "values": [{"measurement": "IC50", "setting": "[1]; read-out: IC50 (nM)", "result": "85200 ± 5060", "unit": "nM"}, {"measurement": "IC90", "setting": "[1]; read-out: IC90 (nM)", "result": "115700 ± 1110", "unit": "nM"}]}, {"smiles": "Cc1nc(Nc2ncc(N3CCN(C)[C@H](C)C3)c(Nc3cc(C)n(C)n3)n2)cc(C2CC2)c1F", "note": "[ZY19489]", "values": [{"measurement": "inhibition at 1 µM", "setting": "[5]", "result": 79, "unit": "%"}, {"measurement": "IC50", "setting": "[3]", "result": "7.2 ± 0.9", "unit": "nM"}, {"measurement": "IC90", "setting": "[3]", "result": "17.1 ± 1.1", "unit": "nM"}]}, {"smiles": "COC(=O)[C@H](CCCN=C(NC(=O)OCOC(=O)Cc1ccccc1)NC(=O)OCOC(=O)Cc1ccccc1)NS(=O)(=O)c1ccc(C)cc1", "note": "[pro-TAME]", "values": [{"measurement": "IC50", "setting": "[1]; read-out: IC50", "result": "58400 ± 7100", "unit": "nM"}, {"measurement": "IC90", "setting": "[1]; read-out: IC90", "result": "91000 ± 11300", "unit": "nM"}]}]}
